According to ChEMBL document CHEMBL1131228, “Molecular modeling of phenothiazines and related drugs as multidrug resistance modifiers: a comparative molecular field analysis study” (1998):

What follows are compounds tested on MCF7-DOX (assay: Anti MDR activity was expressed as MDR ratio or MDR fold reversal in doxorubicin resistant human breast carcinoma tumor cell line MCF-7/DOX).
Type: functional

For `CCN(CC)CCC=C1c2ccccc2Sc2ccc(Cl)cc21`, which MDR ratio is on record?
The MDR ratio was 7.2.

With `CN(C)CC=C1c2ccccc2Sc2ccc(Cl)cc21` as the compound, how does the MDR ratio read?
The MDR ratio was 1.3.

Which MDR ratio does the source give for `Clc1ccc2c(c1)C(=CCCN1CCCCC1)c1ccccc1S2` here?
Its MDR ratio is 15.

For `CN(C)CCC=C1c2ccccc2Sc2ccc(C(F)(F)F)cc21`, which MDR ratio is on record?
The MDR ratio was 2.8.

With `CN(C)CCCN1c2cc(O)ccc2Sc2cc(O)c(Cl)cc21` as the compound, how does the MDR ratio read?
The MDR ratio was 0.9.

`OCCN1CCN(CCCC2c3ccccc3Sc3ccc(Cl)cc32)CC1` (configuration not stated) was tested. Which MDR ratio did it give?
Its MDR ratio is 9.7.

With `CN(C)CCCN1c2cc(Cl)ccc2Sc2cc(O)c(O)cc21` as the compound, how does the MDR ratio read?
Its MDR ratio is 0.8.

`CN(C)CCCN1c2ccccc2Sc2c(Cl)cccc21` was tested. Which MDR ratio did it give?
The MDR ratio was 1.4.

For `OCCN1CCN(C/C=C2/c3ccccc3Sc3ccc(Cl)cc32)CC1`, which MDR ratio is on record?
Its MDR ratio is 1.6.

With `CN(C)CCCN1c2ccccc2Sc2cccc(Cl)c21` as the compound, how does the MDR ratio read?
Its MDR ratio is 1.3.

How did the MDR ratio turn out when `Clc1ccc2c(c1)/C(=C\CCN1CCCCC1)c1ccccc1S2` was run?
The MDR ratio was 6.7.

Which MDR ratio does the source give for `CN(C)CCCN1c2ccccc2Sc2cc(Cl)ccc21` here?
Its MDR ratio is 1.3.

`CCN(CC)CC/C=C1/c2ccccc2Sc2ccc(Cl)cc21` was tested. Which MDR ratio did it give?
The MDR ratio was 4.

`CN(C)C/C=C1/c2ccccc2Sc2ccc(Cl)cc21` was tested. Which MDR ratio did it give?
Its MDR ratio is 1.1.

For `CN(C)CCCCN1c2ccccc2Sc2ccc(Cl)cc21`, which MDR ratio is on record?
The MDR ratio was 2.

`CSc1ccc2c(c1)N(CCCN(C)C)c1ccccc1S2` was tested. Which MDR ratio did it give?
The MDR ratio was 1.5.

`CN(C)CC/C=C1/c2ccccc2Sc2ccc(C(F)(F)F)cc21` was tested. Which MDR ratio did it give?
The MDR ratio was 1.8.

For `CN(C)CCC=C1c2ccccc2Sc2ccc(Cl)cc21`, which MDR ratio is on record?
The MDR ratio was 7.

Which MDR ratio does the source give for `OCCN1CCN(CC/C=C2/c3ccccc3Sc3ccc(Cl)cc32)CC1` (stereo in doubt; 34) [ZUCLOPENTHIXOL] here?
Its MDR ratio is 2.6.

With `OCCN1CCN(CC/C=C2/c3ccccc3Sc3ccc(Cl)cc32)CC1` (stereo in doubt; 35) [ZUCLOPENTHIXOL] as the compound, how does the MDR ratio read?
Its MDR ratio is 15.

How did the MDR ratio turn out when `CN(C)CCCN1c2ccc(O)cc2Sc2ccc(Cl)cc21` [7-HYDROXYCHLORPROMAZINE] was run?
Its MDR ratio is 1.

For `CN(C)CCCN1c2ccccc2[S+]([O-])c2ccc(Cl)cc21` (configuration not stated) [CHLOROPROMAZINE SULFOXIDE], which MDR ratio is on record?
The MDR ratio was 2.2.

How did the MDR ratio turn out when `CCN(CC)CCCN1c2ccccc2Sc2ccc(Cl)cc21` [CHLORPROETHAZINE] was run?
Its MDR ratio is 2.2.

`CN(C)CCCN1c2ccccc2Sc2ccc(Cl)cc21` [CHLORPROMAZINE] was tested. Which MDR ratio did it give?
The MDR ratio was 1.6.

Which MDR ratio does the source give for `CN(C)CC/C=C1/c2ccccc2Sc2ccc(Cl)cc21` [CHLORPROTHIXENE] here?
Its MDR ratio is 2.

With `CN(C)CCN1c2ccccc2Sc2ccc(Cl)cc21` [CHOLRPHENETHAZINE] as the compound, how does the MDR ratio read?
Its MDR ratio is 1.5.

How did the MDR ratio turn out when `OCCN1CCN(CCCN2c3ccccc3Sc3ccc(C(F)(F)F)cc32)CC1` [FLUPHENAZINE] was run?
Its MDR ratio is 2.7.

Which MDR ratio does the source give for `CN(C)CCCN1c2ccccc2CCc2ccccc21` [IMIPRAMINE] here?
The MDR ratio was 2.5.

How did the MDR ratio turn out when `CNCCCN1c2ccccc2Sc2ccc(Cl)cc21` [NOR1-CHLORPROMAZINE] was run?
The MDR ratio was 1.2.

For `NCCCN1c2ccccc2Sc2ccc(Cl)cc21` [NOR2-CHLORPROMAZINE], which MDR ratio is on record?
The MDR ratio was 1.1.

`OCCN1CCN(CCCN2c3ccccc3Sc3ccc(Cl)cc32)CC1` [PERPHENAZINE] was tested. Which MDR ratio did it give?
Its MDR ratio is 2.

`CN(C)CCCN1c2ccccc2Sc2ccccc21` [PROMAZINE] was tested. Which MDR ratio did it give?
Its MDR ratio is 1.2.

Which MDR ratio does the source give for `CC(CN1c2ccccc2Sc2ccccc21)N(C)C` (configuration not stated) [PROMETHAZINE] here?
Its MDR ratio is 1.9.

For `CCN(CC)CCCC(C)Nc1c2ccc(Cl)cc2nc2ccc(OC)cc12` (configuration not stated) [QUINACRINE], which MDR ratio is on record?
Its MDR ratio is 1.3.

Which MDR ratio does the source give for `CN1CCN(CCCN2c3ccccc3Sc3ccc(C(F)(F)F)cc32)CC1` [TRIFLUOPERAZINE] here?
Its MDR ratio is 3.4.

`OCCN1CCN(CC/C=C2/c3ccccc3Sc3ccc(C(F)(F)F)cc32)CC1` [Z-FLUPENTIXOL] was tested. Which MDR ratio did it give?
The MDR ratio was 15.2.

How did the MDR ratio turn out when FLUPENTIXOL was run?
Its MDR ratio is 4.8.
